ChEMBL document CHEMBL5244260, “Aldose reductase and protein tyrosine phosphatase 1B inhibitors as a promising therapeutic approach for diabetes mellitus” (Eur J Med Chem, 2020)
Blank lines part the entries; values can stand above or below the molecule they belong to.

Experiments:
[1] = molecular target: T1, Tyrosine-protein phosphatase non-receptor type 1 (Homo sapiens, UniProt P18031); test: Inhibition of PTP1B (unknown origin) using OMFP as substrate by fluorescence assay
T1 sequence (P18031 whole entry): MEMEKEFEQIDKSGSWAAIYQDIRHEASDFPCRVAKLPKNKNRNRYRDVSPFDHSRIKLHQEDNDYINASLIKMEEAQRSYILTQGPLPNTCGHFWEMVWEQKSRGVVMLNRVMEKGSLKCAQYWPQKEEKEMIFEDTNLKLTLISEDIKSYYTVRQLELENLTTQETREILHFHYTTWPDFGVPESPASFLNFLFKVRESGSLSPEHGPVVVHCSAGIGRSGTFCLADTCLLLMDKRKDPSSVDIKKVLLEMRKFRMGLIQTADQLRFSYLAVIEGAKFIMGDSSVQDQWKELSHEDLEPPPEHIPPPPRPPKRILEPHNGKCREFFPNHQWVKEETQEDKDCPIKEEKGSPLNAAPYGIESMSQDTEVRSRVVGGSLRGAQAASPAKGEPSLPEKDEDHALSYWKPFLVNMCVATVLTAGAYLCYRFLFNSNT

[2] = molecular target: T1, Tyrosine-protein phosphatase non-receptor type 1; test: Inhibition of human PTP1B (1 to 321 residues) expressed in Escherichia coli using FDP as substrate
[3] = species: Homo sapiens; test: Selectivity ratio of IC50 for human PTP1B (1 to 321 residues) to IC50 for human CD45 (564 to […] residues)
[4] = molecular target: T1, Tyrosine-protein phosphatase non-receptor type 1; test: Inhibition of PTP1B (unknown origin)
[5] = Inhibition of ALR2 in calf lens using D,L-glyceraldehyde as substrate in presence of NADPH by spectrophotometric assay; assay type: tissue-based, Bos taurus
[6] = molecular target: T1, Tyrosine-protein phosphatase non-receptor type 1; test: Inhibition of human PTP1B (1 to 298 residues) expressed in Escherichia coli using FDP as substrate by microplate reader
[7] = species: Homo sapiens; test: Selectivity ratio of Ki for PTP1B (unknown origin) to Ki for TCPTP (unknown origin)
[8] = molecular target: T1, Tyrosine-protein phosphatase non-receptor type 1; test: Inhibition of human PTP1B (1 to 411 residues) expressed in Escherichia coli BL21 (DE3) using GNGDpYMPMSPKS as phosphopeptide substrate incubated for 30 mins by malachite green reagent assay
[9] = molecular target: T2, Receptor-type tyrosine-protein phosphatase C (Homo sapiens, UniProt P08575); test: Inhibition of human CD45 (564 to […] residues) expressed in Escherichia coli using FDP as substrate incubated for 10 min
T2 sequence (P08575 whole entry): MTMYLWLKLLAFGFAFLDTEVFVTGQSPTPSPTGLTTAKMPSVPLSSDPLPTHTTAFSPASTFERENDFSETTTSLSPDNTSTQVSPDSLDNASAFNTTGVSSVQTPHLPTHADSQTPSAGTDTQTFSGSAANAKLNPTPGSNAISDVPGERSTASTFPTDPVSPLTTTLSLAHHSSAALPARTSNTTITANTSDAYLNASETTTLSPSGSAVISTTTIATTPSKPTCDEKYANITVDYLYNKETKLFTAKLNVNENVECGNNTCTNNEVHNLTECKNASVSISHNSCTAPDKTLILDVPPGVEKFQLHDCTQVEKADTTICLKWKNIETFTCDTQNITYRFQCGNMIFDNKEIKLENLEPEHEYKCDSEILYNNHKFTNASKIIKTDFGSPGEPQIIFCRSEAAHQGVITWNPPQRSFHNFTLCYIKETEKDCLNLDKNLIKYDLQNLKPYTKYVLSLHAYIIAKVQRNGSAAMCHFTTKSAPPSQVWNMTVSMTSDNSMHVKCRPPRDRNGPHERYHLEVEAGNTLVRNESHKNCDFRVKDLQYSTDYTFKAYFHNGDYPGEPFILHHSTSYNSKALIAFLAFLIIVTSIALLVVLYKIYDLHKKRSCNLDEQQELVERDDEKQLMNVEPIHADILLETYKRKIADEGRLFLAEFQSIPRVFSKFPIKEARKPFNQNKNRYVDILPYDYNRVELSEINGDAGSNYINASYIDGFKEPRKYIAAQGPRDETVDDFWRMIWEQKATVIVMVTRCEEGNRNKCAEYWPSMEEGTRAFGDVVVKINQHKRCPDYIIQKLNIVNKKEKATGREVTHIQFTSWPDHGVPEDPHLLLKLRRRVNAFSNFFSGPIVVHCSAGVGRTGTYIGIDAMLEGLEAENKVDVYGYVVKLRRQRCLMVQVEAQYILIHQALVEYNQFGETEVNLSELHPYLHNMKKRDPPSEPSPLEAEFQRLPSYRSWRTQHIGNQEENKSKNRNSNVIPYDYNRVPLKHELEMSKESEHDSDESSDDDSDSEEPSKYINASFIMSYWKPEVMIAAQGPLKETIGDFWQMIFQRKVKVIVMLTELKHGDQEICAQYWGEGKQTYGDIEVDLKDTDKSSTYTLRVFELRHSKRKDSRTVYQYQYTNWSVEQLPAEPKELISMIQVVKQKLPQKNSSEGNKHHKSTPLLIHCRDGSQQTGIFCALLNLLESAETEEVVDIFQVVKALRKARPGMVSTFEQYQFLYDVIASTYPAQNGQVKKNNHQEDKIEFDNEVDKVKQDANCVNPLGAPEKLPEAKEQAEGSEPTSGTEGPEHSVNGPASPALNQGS

[10] = Inhibition of ALR2 in rat lens using D,L-glyceraldehyde as substrate in presence of NADPH; assay type: tissue-based
[11] = molecular target: Aldo-keto reductase family 1 member B1 (Homo sapiens, UniProt P15121); test: Inhibition of ALR2 (unknown origin)
[12] = Inhibition of ALR2 in Sprague-Dawley rat lens using D,L-glyceraldehyde as substrate preincubated for 10 mins in presence of NADPH followed by substrate addition and measured after 5 mins by spectrophotometric assay; assay type: tissue-based
[13] = molecular target: T1, Tyrosine-protein phosphatase non-receptor type 1; test: Inhibition of PTP1B (unknown origin) assessed as inhibition constant

IC50 [4]: 870 nM
Compound: CCCCCNC(=O)[C@H](Cc1cccc(OCC(=O)O)c1C(=O)O)NC(=O)[C@H](Cc1ccccc1)NC(=O)Oc1ccccc1

IC50 [8]: 80 nM
Compound: O=C1CN(c2ccc(-c3ccc[nH]3)cc2O)S(=O)(=O)N1

IC50 [4]: 200 nM
Compound: CCCCCCCC/C(=C/Cn1oc(=O)[nH]c1=O)c1cccc(OCc2nc(-c3ccc(C(F)(F)F)cc3)oc2C)c1

IC50 [4]: 140 nM
Compound: CCCCCCCCCCCCCCCCOc1ccccc1NC(=O)c1ncccc1C(=O)O

IC50 [5]: 4250 nM
Compound: COc1cccc2c1C=CC1CC(=O)N(C/C=C/C(=O)O)N=C21 (stereo not drawn)

IC50 [4]: 300 nM
Compound: C/C(=C\Cn1oc(=O)[nH]c1=O)c1cccc(OCc2nc(-c3ccc(C(F)(F)F)cc3)oc2-c2ccccc2)c1

IC50 [10]: 75 nM
Compound: CC(C(=O)O)N1C(=O)C(=O)N(Cc2ccc(Cl)c(Cl)c2)C1=O (stereo not drawn)

IC50 [10]: 2000 nM
Compound: CC(C(=O)O)N1C(=O)C(=O)N(Cc2cccc([N+](=O)[O-])c2)C1=O (stereo not drawn)

IC50 [8]: 80 nM
Compound: COc1ccc2cc(O)c(N3CC(=O)NS3(=O)=O)cc2c1

IC50 [4]: 400 nM
Compound: CCCCCCCC/C(=C\Cn1oc(=O)[nH]c1=O)c1cccc(OCc2nc(-c3ccc(C(F)(F)F)cc3)oc2C)c1

IC50 [2]: 6 nM
IC50 [9]: > 50000 nM
Compound: O=C(c1ccccc1)C(Cc1ccc(C(F)(F)P(=O)(O)O)c(Cl)c1)c1ccccc1 (stereo not drawn)

IC50 [4]: 77 nM
Compound: CCc1cc(CC(NC(C)=O)C(=O)NCCCCC(=O)N[C@@H](CCSC)C(=O)O)ccc1N(C(=O)C(=O)O)c1ccccc1C(=O)O (stereo partly drawn)

Ratio Ki [7]: 2
Compound: O=C(O)C(=O)Nc1sc2c(c1C(=O)O)CCN(CCc1ccccc1)C2

IC50 [11]: 520 nM
Compound: C/C(=N\NC(=S)Nc1cccc(Br)c1)c1ccc2c(c1)NC(=O)CO2

IC50 [4]: 90 nM
Compound: CCCCCCCCc1ccc(-n2c(C)ccc2-c2ccc(O[C@@H](Cc3ccccc3)C(=O)O)cc2)cc1

Ki [13]: 920 nM
Ratio Ki [7]: 20
Compound: COC(=O)c1c(O)cccc1OC/C=C/c1cccc(-c2onc(C(=O)O)c2CO)c1

IC50 [4]: 160 nM
Compound: CCCCCCCC/C(=C\Cn1oc(=O)n(CC(=O)O)c1=O)c1cccc(OCc2nc(-c3ccc(C(F)(F)F)cc3)oc2C)c1

Ki [13]: 2100 nM
Ratio Ki [7]: 20
Compound: COC(=O)c1c(O)cccc1OC/C=C/c1cccc(-c2onc(C(=O)O)c2N)c1

IC50 [1]: 500 nM
Compound: Cc1ccc(S(=O)(=O)N(Cc2ccc(C(=O)C(F)(F)P(=O)(O)O)cc2)Cc2ccc(C(=O)C(F)(F)P(=O)(O)O)cc2)cc1

IC50 [11]: 60 nM
Compound: Cc1cccc(-c2nn(-c3ccccc3)cc2/C=C2\SC(=S)N(c3ccc(C(=O)NCC(=O)O)cc3)C2=O)c1

IC50 [11]: 40 nM
Compound: O=C(O)CNC(=O)c1ccc(N2C(=O)/C(=C/c3cn(-c4ccccc4)nc3-c3cccc(F)c3)SC2=S)cc1

IC50 [2]: 6 nM
IC50 [9]: > 50000 nM
Compound: O=C(c1ccccc1)C(Cc1ccc(C(F)(F)P(=O)(O)O)cc1)(Cc1ccc(C(F)(F)P(=O)(O)O)cc1)c1ccccc1

IC50 [6]: 23 nM
Compound: O=P(O)(O)C(F)(F)c1ccc(C[C@](/C=C/c2ccccc2)(c2nc3ccccc3s2)n2nnc3ccccc32)cc1

IC50 [5]: 10000 nM
Compound: O=C(O)CCCCCO/N=C(\c1ccnnc1)c1cccc(C(F)(F)F)c1

IC50 [2]: 6 nM
IC50 [9]: > 50000 nM
Compound: CC(C)OC(=O)c1cc(CC(Cc2ccc(C(F)(F)P(=O)(O)O)cc2)(C(=O)c2ccccc2)c2ccccc2)ccc1C(F)(F)P(=O)(O)O (stereo not drawn)

IC50 [4]: 200 nM
Compound: O=C(O)C(=O)c1sc2c(c1C(=O)O)CCN[C@@H]2CNCc1ccc(O)cc1

Continued, molecule first:

Compound: O=C(c1ccc(CN(Cc2ccc(C(=O)C(F)(F)P(=O)(O)O)cc2)S(=O)(=O)c2cc(F)ccc2F)cc1)C(F)(F)P(=O)(O)O
IC50 [1]: 500 nM

Compound: COC(=O)C(Cc1ccc(C(F)(F)P(=O)(O)O)cc1)(Cc1ccc(C(F)(F)P(=O)(O)O)cc1)C(=O)OCc1ccccc1
IC50 [2]: 40 nM
Ratio IC50 [3]: 250

Compound: CCCCCCCC/C(=C/Cn1oc(=O)n(CC(=O)O)c1=O)c1cccc(OCc2nc(-c3ccc(C(F)(F)F)cc3)oc2C)c1
IC50 [4]: 120 nM

Compound: O=C(O)CCCCO/N=C(\c1cccc(C(F)(F)F)c1)c1ccncn1
IC50 [5]: 12000 nM

Compound: O=[N+]([O-])c1cc(S(=O)(=O)C(F)(F)F)ccc1Oc1ccc(S(=O)(=O)c2ccc(Oc3ccc(S(=O)(=O)C(F)(F)F)cc3[N+](=O)[O-])cc2)cc1
IC50 [4]: 400 nM

Compound: O=P(O)(O)C(F)(F)c1ccc(C[C@](c2ccc(C(F)(F)P(=O)(O)O)cc2)(c2ccc(F)c(F)c2)n2nnc3ccccc32)cc1
IC50 [6]: 13 nM

Compound: CCc1cc(CC(NC(C)=O)C(=O)NCCCCOc2cc(Cl)cc(O)c2C(=O)OC)ccc1N(C(=O)C(=O)O)c1ccccc1C(=O)O (stereo not drawn)
Ratio Ki [7]: 6

Compound: CCc1cc(Br)ccc1S(=O)(=O)N(Cc1ccc(C(=O)C(F)(F)P(=O)(O)O)cc1)Cc1ccc(C(=O)C(F)(F)P(=O)(O)O)cc1
IC50 [1]: 500 nM

Compound: O=C(c1ccc(CN(Cc2ccc(C(=O)C(F)(F)P(=O)(O)O)cc2)S(=O)(=O)c2ccc(Br)cc2OC(F)(F)F)cc1)C(F)(F)P(=O)(O)O
IC50 [1]: 500 nM

Compound: O=C(c1ccccc1)C(Cc1ccc(C(F)(F)P(=O)(O)O)c(Br)c1)c1ccccc1 (stereo not drawn)
IC50 [2]: 6 nM
IC50 [9]: > 50000 nM

Compound: O=P(O)(O)C(F)(F)c1ccc(C[C@@](c2ccccc2)(c2ccc(C(F)(F)P(=O)(O)O)cc2)n2nnc3ccccc32)cc1
IC50 [6]: 16 nM

Compound: O=C(OCc1ccccc1)C(Cc1ccc(C(F)(F)P(=O)(O)O)cc1)(Cc1ccc(C(F)(F)P(=O)(O)O)cc1)C(=O)OCc1ccccc1
IC50 [2]: 40 nM
Ratio IC50 [3]: 250

Compound: Oc1c(Br)cc(-c2ncc(-c3ccccc3)s2)c(Br)c1O
IC50 [4]: 540 nM

Compound: O=C(Cc1ccccc1)C(Cc1ccc(C(F)(F)P(=O)(O)O)cc1)(Cc1ccc(C(F)(F)P(=O)(O)O)cc1)C(=O)Cc1ccccc1
IC50 [2]: 40 nM
Ratio IC50 [3]: 250

Compound: COc1cccc2c1C=CC1CC(=O)N(/C=C/CC(=O)O)N=C21 (stereo not drawn)
IC50 [5]: 3900 nM

Compound: CCCCCCCCCCCCCCOc1ccccc1NC(=O)c1c(C(=O)O)cc(Cl)c(Cl)c1Cl
IC50 [4]: 180 nM

Compound: O=C(O)Cn1c2ccccc2n2c(=O)c(=O)n(Cc3ccccc3)nc12
IC50 [12]: 360 nM

Compound: COC(=O)c1c(O)cccc1OC/C=C/c1ccc(F)c(-c2cc(C(=O)O)no2)c1
Ki [13]: 6900 nM
Ratio Ki [7]: 20

Compound: O=[N+]([O-])c1ccccc1Sc1ccc(O)cc1
IC50 [5]: 580 nM

Compound: O=C1C(=O)N(C2(C(=O)O)CCCCC2)C(=O)N1Cc1ccc(Cl)cc1Cl
IC50 [10]: 50 nM

Compound: CCCCCCCCCCCCCCOc1ccccc1NC(=O)c1cccc(F)c1C(=O)O
IC50 [4]: 106 nM

Compound: O=C1CN(c2c(O)cc(CC3CCCCC3)cc2F)S(=O)(=O)N1
IC50 [8]: 80 nM

Compound: CC(C)(C)OC(=O)COc1ccc(CC2=C(c3c[nH]c4ccccc34)c3ccccc3C(=O)C2=O)cc1
IC50 [4]: 650 nM

Compound: CS(=O)(=O)Oc1c(Cl)cccc1Cc1ccc(N2CC(=O)NS2(=O)=O)c(O)c1
IC50 [8]: 80 nM

Compound: CC(C)OC(=O)C(Cc1ccc(C(F)(F)P(=O)(O)O)cc1)(Cc1ccc(C(F)(F)P(=O)(O)O)cc1)C(=O)OC(C)C
IC50 [2]: 40 nM
Ratio IC50 [3]: 250

Compound: C/C(=N\NC(=S)Nc1cccc(F)c1)c1ccc2c(c1)NC(=O)CO2
IC50 [11]: 190 nM
